From patent US7220748B2, “Use of 4-(2-Flurophenyl)-6-methyl-2-(1-piperazinyl)thieno(2,3-D)-pyrimidine for treating of urinary incontinence” (Arachnova Therapeutics Ltd., priority 2002, dated 2007) come the findings set out here.

The test has as its system urethra/internal sphincter. Nature of the test: Urethral perfusion pressure, vesicular pressure and external sphincter EMG in anaesthetised female rats. Type of test: in vivo, rat. The method, then: Female Sprague-Dawley rats (225–350 g) were anaesthetised using urethane. The bladder was exposed through a midline incision into the abdomen and intravesicular pressure was recorded via a catheter inserted into the bladder. A second catheter was inserted into the bladder to allow infusion of saline using a syringe pump when required. A third catheter was inserted into the bladder and wedged into position in the neck of the bladder with the catheter extending into the urethra. This set-up allowed constant infusion of saline into the urethra whilst urethral pressure was recorded. Changes in urethral pressure are assumed to reflect changes in urethral resistance. In each animal, electromyographic (EMG) recordings were made of urethral striated muscle activity by inserting 2 fine copper electrodes either side of the urethral opening.
Once stable, bladder and urethral pressures were recorded, the bladder was inflated by direct infusion of physiological saline into the bladder at a rate of 0.046 ml/min. This rate approximates the maximum hourly diuresis rate. Infusion into the bladder was terminated prior to evoking micturition and the bladder volume maintained. During and after saline infusion, simultaneous recordings were made of urethral perfusion pressure and of external sphincter EMG activity. Once these parameters had stabilised, autonomic drive to the lower urinary tract was inhibited by administration of hexamethonium (10 mg/kg i.v.) and changes to urethral perfusion pressure and external sphincter EMG recorded. Decamethonium (30 mg/kg i.v.) was then added to remove striated muscle activity. In one group of animals, prior to intravesicular infusion of saline a single bolus dose of MCI-225 was administered (3 mg/kg i.v.). In a second group of animals a bolus dose of vehicle was administered. The effect of MCI-225 and vehicle was determined by analysing the changes in urethral perfusion pressure and external sphincter EMG activity during and after infusion and following administration of the ganglion blocker hexamethonium and then finally decamethonium to block the striated muscle activity of the external sphincter.

“And” between values parts separate entries of the source, which are not always exact repeats. Equal entries are not always repeated.

In the case of `Cc1cc2c(-c3ccccc3F)nc(N3CCNCC3)nc2s1.Cl.O` [MCI-225, 4-(2-Fluorophenyl)-6-methyl-2-(1-piperazinyl)thieno[2,3-D]pyrimidine monohydrate hydrochloride], the “Effect on tone of the urethra/internal sphincter” value (3 mg/kg i.v., anaesthetised female rats) is listed as “increased the tone of the urethra/internal sphincter”. For the same compound, for the setting “3 mg/kg i.v., after hexamethonium 10 mg/kg i.v. then decamethonium 30 mg/kg i.v., vehicle 44±4%”, the “Decrease in urethral perfusion pressure after decamethonium, from values before hexamethonium” value worked out at 64±7%. For the same compound, the “Fall in external sphincter activity (EUS-EMG) after hexamethonium” value (3 mg/kg i.v., after hexamethonium 10 mg/kg i.v., compared with vehicle-treated animals) was “Larger falls”. Moreover, the “Drop in urethral perfusion pressure after hexamethonium” value (3 mg/kg i.v., after hexamethonium 10 mg/kg i.v., vehicle 35±7%) turned out to be 55±5%. For the same compound, the “Increase in urethral pressure from baseline” value (3 mg/kg i.v., baseline vs after intravesicular infusion, p=0.04 Students t test, vehicle 29%) is on record as 77%. Besides, the “Vesicular pressure (VP) after intravesicular infusion” value (anaesthetized female rats, after intravesicular saline infusion, 3 mg kg^-1 i.v., n=3) was 8 ± 1 mmHg. The “Urethral perfusion pressure (UP) after intravesicular infusion” value (anaesthetized female rats, after intravesicular saline infusion, 3 mg kg^-1 i.v., n=3, monohydrate hydrochloride) was determined as 23±2 mmHg. Besides, the “Baseline urethral perfusion pressure (UP)” value (anaesthetized female rats, baseline before intravesicular infusion, 3 mg kg^-1 i.v., n=3, monohydrate hydrochloride) is 13±1 mmHg and 13 ± 2 mmHg.
